Data as given in US11510872B2, “Nanoparticle-lipid composite carriers and uses thereof” (Northwestern University, priority 2017, dated 2022).

Tested on: HepG2 cells
Test: MTS assay for cell viability / cytotoxicity in HepG2 cells
Format: cell-based
Settings: Homo sapiens; HepG2 cells after 48 h, without thermal activation; read-out: IC50 μg PTX/ml
Experimental: HepG2 liver cancer cell line and J774 murine macrophage cells (provided by Prof. Colby Shad Thaxton, Department of Urology, Feinberg School of Medicine, Northwestern University) were grown in RPMI-1640 medium containing 10% FBS and penicillin/streptomycin (100 units/mL and 100 μg/mL, respectively). The cells were cultured at 37° C. with 5% CO2 atmosphere in T75 flasks.
The biocompatibility of the MLCCs and cytotoxicity was tested using MTS (3-(4,5-dimethylthiazol-2-yl)-5-(3-carboxymethoxyphenyl)-2-(4-sulfophenyl)-2H-tetrazolium) assay. Briefly, J774 and HepG2 cells were plated at 1×10^5 cells per well in 24-well plate with 70-80% of confluency. […] To compare the effect of drug loaded MLCCs with native drug, Cells were also treated with different concentration of native drug (similar to amount of drug entrapped within the MLCCs as calculated from measurement via HPLC). […] MTS assay was used to quantify the cell viability according to the protocol provided by the manufacture (CellTiter 96 Aqueous One Solution Cell Proliferation Assay; Promega). The optical densities were recorded at 490 nm and 700 nm using BioTek Synergy™ 4 Hybrid Microplate Reader. The background absorbance at 700 nm was subtracted from absorbance at 490 nm. […] The IC50 values were calculated by nonlinear curve fit using dose response-inhibition equation with Graphpad Prism 5.0. […]

CC(=O)O[C@H]1C(=O)[C@@]2(C)[C@H]([C@H](OC(=O)c3ccccc3)[C@]3(O)C[C@H](OC(=O)[C@H](O)[C@@H](NC(=O)c4ccccc4)c4ccccc4)C(C)=C1C3(C)C)[C@]1(OC(C)=O)CO[C@@H]1C[C@@H]2O [PTX, paclitaxel]
IC50: 0.63 µg/mL
